Assay results from patent US20250147039A1, “Compounds for complexation of rare earth elements and/or s-, p-, d- block metals, their coordination compounds, peptide conjugates, method of their preparation and use thereof” (USTAV ORGANICKE CHEMIE A BIOCHEMIE AV CR V.V.I., priority 2021, published 2025).

Key:
[1] = Formation of 1,5-cz-[M(Lig)] from Lig and M^III ions (metal dependent click-zip) (Charts 4, 5); assay type: physicochemical; settings: MOPS/NaOH buffer pH 7.0; for conversion to 1,5-cz-[M(Lig)], Sc^III / conversion to 1,5-cz-[M(Lig)], Y^III: TD728, TD827 in 50% i-PrOH; for conversion to 1,5-cz-[M(Lig)], Y^III: TD714 sum of two diastereoisomers
[2] = Formation of 1,5-cz-[Ln(Lig)] from Lig and Ln^III ions (metal dependent click-zip), MOPS/NaOH buffer pH 7.0, analytical HPLC (Charts 1, 2); settings: MOPS/NaOH buffer pH 7.0

C#Cc1cccc(CN2CCN(CC(=O)O)CCN(Cc3cc(C(=O)OC(C)C)cc(CN=[N+]=[N-])n3)CCN(CC(=O)O)CC2)n1 [TD1148]
conversion to 1,5-cz-[Ln(Lig)] with hydrolysed group in the side chain, Sc^III ([1]; 1 week at 80° C.): 11%
conversion to 1,5-cz-[Ln(Lig)] with hydrolysed group in the side chain, Y^III ([1]; 1 week at 80° C.): 94%
conversion to 1,5-cz-[M(Lig)], Sc^III ([1]; 1 week at 80° C.): 0%
conversion to 1,5-cz-[M(Lig)], Y^III ([1]; 1 week at 80° C.): 0%
conversion to 1,5-cz-[Ln(Lig)] with hydrolysed group in the side chain, Sc^III ([1]; 1 hour at 80° C.): 0%
conversion to 1,5-cz-[Ln(Lig)] with hydrolysed group in the side chain, Y^III ([1]; 1 hour at 80° C.): 3%
conversion to 1,5-cz-[M(Lig)], Sc^III ([1]; 1 hour at 80° C.): 0%
conversion to 1,5-cz-[M(Lig)], Y^III ([1]; 1 hour at 80° C.): 18%
conversion to 1,5-cz-[Ln(Lig)] with hydrolysed group in the side chain, Ce^III ([2]; after 1 week at 80° C.): 27%
conversion to 1,5-cz-[Ln(Lig)], Ce^III ([2]; after 1 week at 80° C.): 0%
conversion to 1,5-cz-[Ln(Lig)] with hydrolysed group in the side chain, Ce^III ([2]; after 1 hour at 80° C.): 0%
conversion to 1,5-cz-[Ln(Lig)], Ce^III ([2]; after 1 hour at 80° C.): 0%
conversion to 1,5-cz-[Ln(Lig)] with hydrolysed group in the side chain, Dy^III ([2]; after 1 week at 80° C.): 93%
conversion to 1,5-cz-[Ln(Lig)], Dy^III ([2]; after 1 week at 80° C.): 0%
conversion to 1,5-cz-[Ln(Lig)] with hydrolysed group in the side chain, Dy^III ([2]; after 1 hour at 80° C.): 2%
conversion to 1,5-cz-[Ln(Lig)], Dy^III ([2]; after 1 hour at 80° C.): 14%
conversion to 1,5-cz-[Ln(Lig)] with hydrolysed group in the side chain, Er^III ([2]; after 1 week at 80° C.): 94%
conversion to 1,5-cz-[Ln(Lig)], Er^III ([2]; after 1 week at 80° C.): 0%
conversion to 1,5-cz-[Ln(Lig)] with hydrolysed group in the side chain, Er^III ([2]; after 1 hour at 80° C.): 4%
conversion to 1,5-cz-[Ln(Lig)], Er^III ([2]; after 1 hour at 80° C.): 33%
conversion to 1,5-cz-[Ln(Lig)] with hydrolysed group in the side chain, Eu^III ([2]; after 1 week at 80° C.): 90%
conversion to 1,5-cz-[Ln(Lig)], Eu^III ([2]; after 1 week at 80° C.): 0%
conversion to 1,5-cz-[Ln(Lig)] with hydrolysed group in the side chain, Eu^III ([2]; after 1 hour at 80° C.): 0%
conversion to 1,5-cz-[Ln(Lig)], Eu^III ([2]; after 1 hour at 80° C.): 4%
conversion to 1,5-cz-[Ln(Lig)] with hydrolysed group in the side chain, Gd^III ([2]; after 1 week at 80° C.): 90%
conversion to 1,5-cz-[Ln(Lig)], Gd^III ([2]; after 1 week at 80° C.): 0%
conversion to 1,5-cz-[Ln(Lig)] with hydrolysed group in the side chain, Gd^III ([2]; after 1 hour at 80° C.): 1%
conversion to 1,5-cz-[Ln(Lig)], Gd^III ([2]; after 1 hour at 80° C.): 5%
conversion to 1,5-cz-[Ln(Lig)] with hydrolysed group in the side chain, Ho^III ([2]; after 1 week at 80° C.): 94%
conversion to 1,5-cz-[Ln(Lig)], Ho^III ([2]; after 1 week at 80° C.): 0%
conversion to 1,5-cz-[Ln(Lig)] with hydrolysed group in the side chain, Ho^III ([2]; after 1 hour at 80° C.): 3%
conversion to 1,5-cz-[Ln(Lig)], Ho^III ([2]; after 1 hour at 80° C.): 21%
conversion to 1,5-cz-[Ln(Lig)] with hydrolysed group in the side chain, La^III ([2]; after 1 week at 80° C.): 36%
conversion to 1,5-cz-[Ln(Lig)], La^III ([2]; after 1 week at 80° C.): 0%
conversion to 1,5-cz-[Ln(Lig)] with hydrolysed group in the side chain, La^III ([2]; after 1 hour at 80° C.): 0%
conversion to 1,5-cz-[Ln(Lig)], La^III ([2]; after 1 hour at 80° C.): 0%
conversion to 1,5-cz-[Ln(Lig)] with hydrolysed group in the side chain, Lu^III ([2]; after 1 week at 80° C.): 96%
conversion to 1,5-cz-[Ln(Lig)], Lu^III ([2]; after 1 week at 80° C.): 0%
conversion to 1,5-cz-[Ln(Lig)] with hydrolysed group in the side chain, Lu^III ([2]; after 1 hour at 80° C.): 6%
conversion to 1,5-cz-[Ln(Lig)], Lu^III ([2]; after 1 hour at 80° C.): 57%
conversion to 1,5-cz-[Ln(Lig)] with hydrolysed group in the side chain, Nd^III ([2]; after 1 week at 80° C.): 71%
conversion to 1,5-cz-[Ln(Lig)], Nd^III ([2]; after 1 week at 80° C.): 0%
conversion to 1,5-cz-[Ln(Lig)] with hydrolysed group in the side chain, Nd^III ([2]; after 1 hour at 80° C.): 0%
conversion to 1,5-cz-[Ln(Lig)], Nd^III ([2]; after 1 hour at 80° C.): 1%
conversion to 1,5-cz-[Ln(Lig)] with hydrolysed group in the side chain, Pr^III ([2]; after 1 week at 80° C.): 61%
conversion to 1,5-cz-[Ln(Lig)], Pr^III ([2]; after 1 week at 80° C.): 0%
conversion to 1,5-cz-[Ln(Lig)] with hydrolysed group in the side chain, Pr^III ([2]; after 1 hour at 80° C.): 0%
conversion to 1,5-cz-[Ln(Lig)], Pr^III ([2]; after 1 hour at 80° C.): 0%
conversion to 1,5-cz-[Ln(Lig)] with hydrolysed group in the side chain, Sm^III ([2]; after 1 week at 80° C.): 86%
conversion to 1,5-cz-[Ln(Lig)], Sm^III ([2]; after 1 week at 80° C.): 0%
conversion to 1,5-cz-[Ln(Lig)] with hydrolysed group in the side chain, Sm^III ([2]; after 1 hour at 80° C.): 0%
conversion to 1,5-cz-[Ln(Lig)], Sm^III ([2]; after 1 hour at 80° C.): 3%
conversion to 1,5-cz-[Ln(Lig)] with hydrolysed group in the side chain, Tb^III ([2]; after 1 week at 80° C.): 91%
conversion to 1,5-cz-[Ln(Lig)], Tb^III ([2]; after 1 week at 80° C.): 0%
conversion to 1,5-cz-[Ln(Lig)] with hydrolysed group in the side chain, Tb^III ([2]; after 1 hour at 80° C.): 1%
conversion to 1,5-cz-[Ln(Lig)], Tb^III ([2]; after 1 hour at 80° C.): 9%
conversion to 1,5-cz-[Ln(Lig)] with hydrolysed group in the side chain, Tm^III ([2]; after 1 week at 80° C.): 95%
conversion to 1,5-cz-[Ln(Lig)], Tm^III ([2]; after 1 week at 80° C.): 0%
conversion to 1,5-cz-[Ln(Lig)] with hydrolysed group in the side chain, Tm^III ([2]; after 1 hour at 80° C.): 5%
conversion to 1,5-cz-[Ln(Lig)], Tm^III ([2]; after 1 hour at 80° C.): 45%
conversion to 1,5-cz-[Ln(Lig)] with hydrolysed group in the side chain, Yb^III ([2]; after 1 week at 80° C.): 95%
conversion to 1,5-cz-[Ln(Lig)], Yb^III ([2]; after 1 week at 80° C.): 0%
conversion to 1,5-cz-[Ln(Lig)] with hydrolysed group in the side chain, Yb^III ([2]; after 1 hour at 80° C.): 5%
conversion to 1,5-cz-[Ln(Lig)], Yb^III ([2]; after 1 hour at 80° C.): 54%

C#Cc1cccc(CN2CCN(CC(=O)O)CCN(Cc3cc(N(C)C)cc(CN=[N+]=[N-])n3)CCN(CC(=O)O)CC2)n1 [TD1176]
conversion to 1,5-cz-[M(Lig)], Sc^III ([1]; 1 week at 80° C.): 31%
conversion to 1,5-cz-[M(Lig)], Y^III ([1]; 1 week at 80° C.): 95%
conversion to 1,5-cz-[M(Lig)], Sc^III ([1]; 1 hour at 80° C.): 6%
conversion to 1,5-cz-[M(Lig)], Y^III ([1]; 1 hour at 80° C.): 30%
conversion to 1,5-cz-[Ln(Lig)], Ce^III ([2]; after 1 week at 80° C.): 60%
conversion to 1,5-cz-[Ln(Lig)], Ce^III ([2]; after 1 hour at 80° C.): 0%
conversion to 1,5-cz-[Ln(Lig)], Dy^III ([2]; after 1 week at 80° C.): 96%
conversion to 1,5-cz-[Ln(Lig)], Dy^III ([2]; after 1 hour at 80° C.): 20%
conversion to 1,5-cz-[Ln(Lig)], Er^III ([2]; after 1 week at 80° C.): 96%
conversion to 1,5-cz-[Ln(Lig)], Er^III ([2]; after 1 hour at 80° C.): 46%
conversion to 1,5-cz-[Ln(Lig)], Eu^III ([2]; after 1 week at 80° C.): 93%
conversion to 1,5-cz-[Ln(Lig)], Eu^III ([2]; after 1 hour at 80° C.): 6%
conversion to 1,5-cz-[Ln(Lig)], Gd^III ([2]; after 1 week at 80° C.): 91%
conversion to 1,5-cz-[Ln(Lig)], Gd^III ([2]; after 1 hour at 80° C.): 7%
conversion to 1,5-cz-[Ln(Lig)], Ho^III ([2]; after 1 week at 80° C.): 96%
conversion to 1,5-cz-[Ln(Lig)], Ho^III ([2]; after 1 hour at 80° C.): 31%
conversion to 1,5-cz-[Ln(Lig)], La^III ([2]; after 1 week at 80° C.): 73%
conversion to 1,5-cz-[Ln(Lig)], La^III ([2]; after 1 hour at 80° C.): 0%
conversion to 1,5-cz-[Ln(Lig)], Lu^III ([2]; after 1 week at 80° C.): 96%
conversion to 1,5-cz-[Ln(Lig)], Lu^III ([2]; after 1 hour at 80° C.): 85%
conversion to 1,5-cz-[Ln(Lig)], Nd^III ([2]; after 1 week at 80° C.): 85%
conversion to 1,5-cz-[Ln(Lig)], Nd^III ([2]; after 1 hour at 80° C.): 2%
conversion to 1,5-cz-[Ln(Lig)], Pr^III ([2]; after 1 week at 80° C.): 82%
conversion to 1,5-cz-[Ln(Lig)], Pr^III ([2]; after 1 hour at 80° C.): 1%
conversion to 1,5-cz-[Ln(Lig)], Sm^III ([2]; after 1 week at 80° C.): 92%
conversion to 1,5-cz-[Ln(Lig)], Sm^III ([2]; after 1 hour at 80° C.): 5%
conversion to 1,5-cz-[Ln(Lig)], Tb^III ([2]; after 1 week at 80° C.): 94%
conversion to 1,5-cz-[Ln(Lig)], Tb^III ([2]; after 1 hour at 80° C.): 14%
conversion to 1,5-cz-[Ln(Lig)], Tm^III ([2]; after 1 week at 80° C.): 96%
conversion to 1,5-cz-[Ln(Lig)], Tm^III ([2]; after 1 hour at 80° C.): 63%
conversion to 1,5-cz-[Ln(Lig)], Yb^III ([2]; after 1 week at 80° C.): 97%
conversion to 1,5-cz-[Ln(Lig)], Yb^III ([2]; after 1 hour at 80° C.): 75%
